Structures are written as SMILES.

b-Raf (V600E), sequence (P15056 whole entry V600E): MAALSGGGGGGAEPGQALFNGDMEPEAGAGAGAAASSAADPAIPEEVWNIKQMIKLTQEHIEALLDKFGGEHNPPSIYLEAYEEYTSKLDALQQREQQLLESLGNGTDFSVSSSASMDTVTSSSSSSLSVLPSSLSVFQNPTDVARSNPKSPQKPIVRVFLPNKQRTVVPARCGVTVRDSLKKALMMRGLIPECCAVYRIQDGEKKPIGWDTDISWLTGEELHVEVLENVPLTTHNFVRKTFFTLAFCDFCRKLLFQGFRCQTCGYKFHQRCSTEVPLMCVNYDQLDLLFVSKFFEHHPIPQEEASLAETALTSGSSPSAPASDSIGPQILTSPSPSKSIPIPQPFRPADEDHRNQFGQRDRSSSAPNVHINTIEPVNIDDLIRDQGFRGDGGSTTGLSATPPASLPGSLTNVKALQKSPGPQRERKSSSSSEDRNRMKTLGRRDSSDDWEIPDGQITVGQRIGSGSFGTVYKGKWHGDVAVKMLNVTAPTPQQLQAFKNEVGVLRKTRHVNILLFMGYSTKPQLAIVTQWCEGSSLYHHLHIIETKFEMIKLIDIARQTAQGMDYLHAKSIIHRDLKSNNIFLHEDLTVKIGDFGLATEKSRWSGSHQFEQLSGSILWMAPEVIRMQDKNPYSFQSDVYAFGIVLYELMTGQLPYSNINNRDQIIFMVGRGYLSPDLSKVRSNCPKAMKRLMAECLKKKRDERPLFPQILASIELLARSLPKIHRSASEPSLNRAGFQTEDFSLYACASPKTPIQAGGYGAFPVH

The first assay addresses b-Raf (V600E) (Homo sapiens (Human), UniProt P15056, V600E). As to conditions: read-out: b-Raf IC-50; AlphaScreen, 60 min pre-incubation, 3 hours reaction. On the technique in general: Alpha assays give light when donor and acceptor beads are brought close together.
`Cn1c(N2CCOCC2)cc(-c2cc(NC(=O)c3ccnc(C(C)(F)F)c3)cnc2Cl)cc1=O` [Example 513, N-(2-chloro-1′-methyl-6′-morpholino-2′-oxo-1′,2′-dihydro-[3,4′-bipyridin]-5-yl)-2-(1,1-difluoroethyl)isonicotinamide]: the IC50 worked out at 2.4 nM.

Take `Cc1ccc(NC(=O)c2cnnc(C(C)(C)C#N)c2)cc1-c1cc(N2CCOCC2)n2nccc2n1` [Example 795, 6-(2-cyanopropan-2-yl)-N-(4-methyl-3-(7-morpholinopyrazolo[1,5-a]pyrimidin-5-yl)phenyl)pyridazine-4-carboxamide]: the IC50 stood at 1.8 nM.

With `Cc1ccc(NC(=O)c2ccnc(C(C)(C)C#N)c2)cc1-c1cc(N2CCOCC2)nc(N2C(=O)OC[C@@H]2C)n1` [Example 782, (S)-2-(2-cyanopropan-2-yl)-N-(4-methyl-3-(2-(4-methyl-2-oxooxazolidin-3-yl)-6-morpholinopyrimidin-4-yl)phenyl)isonicotinamide], the IC50 was 22.3 nM.

On to `Cc1ccc(NC(=O)c2ccnc(C(C)(C)C#N)c2)cc1-c1cc(N2CCOCC2)nc(NC2CNC2)n1` [Example 786, N-(3-(2-(azetidin-3-ylamino)-6-morpholinopyrimidin-4-yl)-4-methylphenyl)-2-(2-cyanopropan-2-yl)isonicotinamide], for which the IC50 amounted to 14.9 nM.

For the compound `Cc1ccc(NC(=O)c2ccnc(C(C)(F)F)c2)cc1-c1cc(N2CCOCC2)nc(OC2CNC2)n1` [Example 779, N-(3-(2-(azetidin-3-yloxy)-6-morpholinopyrimidin-4-yl)-4-methylphenyl)-2-(1,1-difluoroethyl)isonicotinamide], the IC50 was 2.2 nM.

Turning to `Cc1ccc(NC(=O)c2ccnc(C(C)(C)C#N)c2)cc1-c1cc(N2CCOCC2)c(OC2CCOCC2)nn1` [Example 584, 2-(2-cyanopropan-2-yl)-N-(4-methyl-3-(5-morpholino-6-((tetrahydro-2H-pyran-4-yl)oxy)pyridazin-3-yl)phenyl)isonicotinamide], the IC50 came out at 1.2 nM.

Turning to `Cc1ncc(C(=O)Nc2cccc(C(F)F)c2)cc1-c1cc(N2CCOCC2)c(=O)n(C)c1` [Example 445, N-(3-(difluoromethyl)phenyl)-1′,2-dimethyl-5′-morpholino-6′-oxo-1′,6′-dihydro-[3,3′-bipyridine]-5-carboxamide], the IC50 came out at 12 nM.

With `COc1nnc(-c2cc(NC(=O)c3cccc(C(F)F)c3)cnc2C)cc1N1CCOCC1` [Example 604, 3-(difluoromethyl)-N-(5-(6-methoxy-5-morpholinopyridazin-3-yl)-6-methylpyridin-3-yl)benzamide], the IC50 worked out at 2.3 nM.

`Cc1ncc(NC(=O)c2cccc(C(F)(F)F)c2)cc1-c1cc(N2CCOCC2)nc(N(C)C)n1` [Example 760, N-(5-(2-(dimethylamino)-6-morpholinopyrimidin-4-yl)-6-methylpyridin-3-yl)-3-(trifluoromethyl)benzamide]: the IC50 is 11.3 nM.

For the compound `CCNc1nc(-c2cc(NC(=O)c3ccnc(C(C)(C)C#N)c3)ccc2C)cc(N2CCOCC2)n1` [Example 717, 2-(2-cyanopropan-2-yl)-N-(3-(2-(ethylamino)-6-morpholinopyrimidin-4-yl)-4-methylphenyl)isonicotinamide], the IC50 turned out to be 2.9 nM.

Staying with this assay, now noted: read-out: b-Raf IC-50; AlphaScreen, 60 min pre-incubation, reaction 3 hours at room temperature.
As to `Cc1ncc(NC(=O)c2cc(C(C)(C)C#N)ccn2)cc1-c1cnc(OC2CCOCC2)c(N2CCOCC2)c1` [Example 943, 4-(2-cyanopropan-2-yl)-N-(2-methyl-5′-morpholino-6′-((tetrahydro-2H-pyran-4-yl)oxy)-[3,3′-bipyridin]-5-yl)picolinamide], the IC50 was 9.51 nM.

As to `Cc1ccc(NC(=O)c2ccnc(S(C)(=O)=O)c2)cc1-c1cc(N2CCOCC2)nc(N2CCOCC2)c1` [Example 1118, N-(3-(2,6-dimorpholinopyridin-4-yl)-4-methylphenyl)-2-(methylsulfonyl)isonicotinamide], the IC50 was determined as 1.02 nM.

Consider `Cc1ccc(NC(=O)c2cnnc(C3CC3)c2)cc1-c1cc(NCCO)nc(N2CCOCC2)c1` [Example 1048, 6-cyclopropyl-N-(3-(2-((2-hydroxyethyl)amino)-6-morpholinopyridin-4-yl)-4-methylphenyl)pyridazine-4-carboxamide], for which the IC50 is 1.55 nM.

As to `Cc1ccc(NC(=O)c2ccnc(C(C)(F)F)c2)cc1-c1cc(N2CCOCC2)c(S(C)(=O)=O)nn1` [Example 929, 2-(1,1-difluoroethyl)-N-(4-methyl-3-(6-(methylsulfonyl)-5-morpholinopyridazin-3-yl)phenyl)isonicotinamide], the IC50 amounted to 1.05 nM.

With `Cc1ncc(NC(=O)c2ccnc(C(C)(C)O)c2)cc1-c1cc(N2CCOCC2)c2nccn2n1` [Example 870, 2-(2-hydroxypropan-2-yl)-N-(6-methyl-5-(8-morpholinoimidazo[1,2-b]pyridazin-6-yl)pyridin-3-yl)isonicotinamide], the IC50 turned out to be 7.5 nM.

As to `Cc1ccc(NC(=O)c2ccnc(C(C)(F)F)c2)cc1-c1cc(NCCO)nc(N2CCOCC2)c1` [Example 1037, 2-(1,1-difluoroethyl)-N-(3-(2-((2-hydroxyethyl)amino)-6-morpholinopyridin-4-yl)-4-methylphenyl)isonicotinamide], the IC50 was determined as 1.07 nM.

`Cc1ncc(NC(=O)c2cc(C3CC3)on2)cc1-c1cc(N2CCOCC2)nc(N2CC(O)C2)c1` [Example 1093, 5-cyclopropyl-N-(2′-(3-hydroxyazetidin-1-yl)-2-methyl-6′-morpholino-[3,4′-bipyridin]-5-yl)isoxazole-3-carboxamide]: the IC50 stood at 6.58 nM.

As for `Cc1ncc(NC(=O)c2ccnc(C(F)(F)F)c2)cc1-c1cc(NCCO)nc(N2CCOC[C@H]2C)c1` [Example 1140, (R)—N-(2′-((2-hydroxyethyl)amino)-2-methyl-6′-(3-methylmorpholino)-[3,4′-bipyridin]-5-yl)-2-(trifluoromethyl)isonicotinamide], the IC50 came to 13.4 nM.

As for `Cc1ccc(NC(=O)c2ccnc(C(F)F)c2)cc1-c1cc(N2CCOCC2)nc(N2CC(O)C2)c1` [Example 1067, 2-(difluoromethyl)-N-(3-(2-(3-hydroxyazetidin-1-yl)-6-morpholinopyridin-4-yl)-4-methylphenyl)isonicotinamide], the IC50 amounted to 0.6 nM.

In the case of `Cc1ncc(NC(=O)c2ccnc(C(F)(F)F)c2)cc1-c1cc(C2COCCO2)nc(N2CCOCC2)c1` (centres unmarked) [Example 1165, N-(2′-(1,4-dioxan-2-yl)-2-methyl-6′-morpholino-[3,4′-bipyridin]-5-yl)-2-(trifluoromethyl)isonicotinamide], the IC50 was found to be 2.82 nM.

Take `Cc1ccc(NC(=O)c2cccc(C(F)(F)F)c2)cc1-c1cc(NC(=O)C(C)O)nc(N2CCOCC2)c1` (centres unmarked) [Example 1066, N-(3-(2-(2-hydroxypropanamido)-6-morpholinopyridin-4-yl)-4-methylphenyl)-3-(trifluoromethyl)benzamide]: the IC50 was 0.58 nM.

The assay is the same for the next values; noted with them: read-out: b-Raf IC-50; Table 2; AlphaScreen, 3 hours reaction.
For the compound `Cc1ccc(NC(=O)c2cccc(C(F)(F)F)c2)cc1-c1cnc(N2CCOCC2)s1` [Example 198, N-(4-methyl-3-(2-morpholinothiazol-5-yl)phenyl)-3-(trifluoromethyl)benzamide], the IC50 was found to be 0.8 nM.

As for `COc1ncc(-c2cc(NC(=O)c3ccnc(C(C)(F)F)c3)cnc2Cl)cc1N1CCOCC1` [Example 261, N-(2-chloro-6′-methoxy-5′-morpholino-[3,3′-bipyridin]-5-yl)-2-(1,1-difluoroethyl)isonicotinamide], the IC50 is 1.8 nM.

For `C=C(C)c1ccc(F)c(NC(=O)c2ccc(C)c(-c3cnc(OCC)c(N4CCOCC4)c3)c2)c1` [Example 256, 3-(6-ethoxy-5-morpholinopyridin-3-yl)-N-(2-fluoro-5-(prop-1-en-2-yl)phenyl)-4-methylbenzamide], the IC50 worked out at 1.8 nM.

In the case of `CCN1CCN(c2cc(C(=O)Nc3cnc(C)c(-c4cc(N5CCOCC5)c(=O)n(C)c4)c3)cc(C(F)(F)F)c2)CC1` [Example 402, N-(1′,2-dimethyl-5′-morpholino-6′-oxo-1′,6′-dihydro-[3,3′-bipyridin]-5-yl)-3-(4-ethylpiperazin-1-yl)-5-(trifluoromethyl)benzamide], the IC50 amounted to 100 nM.

For the compound `Cn1cc(-c2cc(NC(=O)c3ccnc(C(F)(F)F)c3)ccc2F)cc(N2CCOCC2)c1=O` [Example 418], the IC50 was 3.5 nM.

For `Cc1ccc(C(=O)Nc2cccc(C(C)(C)C#N)c2)cc1-c1cc(N2CCOCC2)c(=O)n(C)c1` [Example 431, N-(3-(2-cyanopropan-2-yl)phenyl)-4-methyl-3-(1-methyl-5-morpholino-6-oxo-1,6-dihydropyridin-3-yl)benzamide], the IC50 turned out to be 3.7 nM.

`Cc1ncc(NC(=O)c2ccnc(C(C)C)c2)cc1-c1cnc(OC2CCOCC2)c(N2CCOCC2)c1` [Example 313, 2-isopropyl-N-(2-methyl-5′-morpholino-6′-((tetrahydro-2H-pyran-4-yl)oxy)-[3,3′-bipyridin]-5-yl)isonicotinamide]: the IC50 is 7 nM.

Take `Cc1ncc(NC(=O)c2cc(CN(C)C)cc(C(F)(F)F)c2)cc1-c1cnc(N(C)C)c(N2CCOCC2)c1` [Example 269, N-(6′-(dimethylamino)-2-methyl-5′-morpholino-[3,3′-bipyridin]-5-yl)-3-((dimethylamino)methyl)-5-(trifluoromethyl)benzamide]: the IC50 came to 2.4 nM.

For `CCOc1ncc(-c2cc(C(=O)Nc3cccc(S(C)(=O)=O)c3)ccc2C)cc1N1CCOCC1` [Example 238, 3-(6-ethoxy-5-morpholinopyridin-3-yl)-4-methyl-N-(3-(methylsulfonyl)phenyl)benzamide], the IC50 was found to be 0.9 nM.

Take `CC(C)c1cc(C(=O)Nc2ccc(Cl)c(-c3cc(N4CCOCC4)c(=O)n(C)c3)c2)ccn1` [Example 421, N-(4-chloro-3-(1-methyl-5-morpholino-6-oxo-1,6-dihydropyridin-3-yl)phenyl)-2-isopropylisonicotinamide]: the IC50 came out at 1 nM.

In the case of `CCOc1ncc(-c2cc(NC(=O)c3ccnc(C(C)(C)O)c3)cnc2C)cc1N1CCOCC1` [Example 240, N-(6′-ethoxy-2-methyl-5′-morpholino-[3,3′-bipyridin]-5-yl)-2-(2-hydroxypropan-2-yl)isonicotinamide], the IC50 was 15.3 nM.

Source of the values: patent publication US9694016B2 (Novartis AG, priority 2013, dated 2017).
